Assay results: patent US20190185479A1, “BICYCLIC NITROGENATED HETEROCYCLIC COMPOUND” (MITSUBISHI TANABE PHARMA CORPORATION, priority 2016, published 2019)
pIC50: −log10 of the molar value. Where a name gives a salt, the structure may show the parent alone.

Molecular target: T1, Human PDE7B (hPDE7B) (Homo sapiens, UniProt Q9NP56)
T1 construct: made in house; host or cells: COS-7 cells
Test: Measurement of PDE7 inhibitory activity (Experimental Example 1; residual cAMP, LANCE Ultra cAMP TR-FRET)
Type: biochemical
Conditions: for pIC50: cAMP 3 nmol/L, room temperature 60 minutes; for inhibition at 1 µM: compound at 1 μmol/L
Experimental: Human PDE7B (hPDE7B) was isolated from COS-7 cells transfected with plasmids encoding hPDE7B according to the method described in a reference, Biochemical and Biophysical Research Communication, 271, p. 575-583 (2000). The resulting enzyme solution was used in the PDE assay.
PDE7 inhibitory assay was carried out by reacting the mixture of a compound, hPDE7B, and cAMP, and measuring the residual cAMP by a detection method using LANCE (registered trademark) Ultra cAMP Detection Kit (ParkinElmer). The compound was dissolved in DMSO, and diluted so that the concentration would become 50 times of the final concentration. The hPDE7B and cAMP were diluted with an assay buffer (50 mmol/L Tris-HCl, 1 mmol/L MgCl2, 0.1% BSA, 0.5 mmol/L DTT, pH7.5) so that the hPDE7B would have an appropriate enzyme activity and the concentration of cAMP would become 6 nmol/L. To a 96 well plate were added the compound (2 μL) (DMSO final concentration: 2%), hPDE7B (48 μL), and cAMP (50 μL) (concentration at the reaction: 3 nmol/L), and the resulting mixture was reacted at room temperature for 60 minutes. The reaction solution (20 μL) was subjected to a TR-FRET method according to the protocol specified by the kit to measure the concentration of the residual cAMP. In the assay, to a tracer solution specified by the kit was added 0.5 mmol/L of 3-isobutyl-1-methylxanthine (IBMX, nonselective PDE inhibitor) in order to stop the PDE enzyme reaction after the completion of reaction until the measurement.
The reaction without a compound was defined as “0% inhibition”, the reaction without hPDE7B was defined as “100% inhibition”, and the inhibition rate of the compound was calculated by the following equation.
Inhibition rate of compound (%)={(Residual cAMP concentration at the addition of compound−Residual cAMP concentration in 0% inhibition)/(Residual cAMP concentration in 100% inhibition−Residual cAMP concentration in 0% inhibition)}×100

T1 sequence (Q9NP56 whole entry): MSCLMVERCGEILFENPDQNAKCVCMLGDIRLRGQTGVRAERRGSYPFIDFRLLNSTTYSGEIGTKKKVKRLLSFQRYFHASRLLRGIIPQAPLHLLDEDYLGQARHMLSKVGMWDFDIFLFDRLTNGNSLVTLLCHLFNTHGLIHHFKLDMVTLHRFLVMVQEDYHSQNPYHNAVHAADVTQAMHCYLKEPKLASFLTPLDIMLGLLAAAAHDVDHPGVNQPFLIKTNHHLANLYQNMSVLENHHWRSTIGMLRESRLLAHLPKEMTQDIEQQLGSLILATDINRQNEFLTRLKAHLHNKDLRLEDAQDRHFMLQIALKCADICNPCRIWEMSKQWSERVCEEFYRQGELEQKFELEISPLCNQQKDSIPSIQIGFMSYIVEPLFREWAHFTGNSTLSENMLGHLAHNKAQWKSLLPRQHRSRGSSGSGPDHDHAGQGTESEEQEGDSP

| SMILES | pIC50 | inhibition at 1 µM |
| --- | --- | --- |
| CC1CCCC(n2nnc3c(N)ncnc32)C1 (single isomer, unassigned) [Example 197, 3-(cis-3-methylcyclohexyl)-3H-[1,2,3]triazolo[4,5-d]pyrimidin-7-amine] | 6.47 |  |
| CCC1CCCN(c2nnc3c(N)nccn23)C1 (stereo not drawn) [Example 25] | 6.72 |  |
| C=C1CC(c2nnc3c(N)nccn23)C1 [Example 19, 3-(3-methylenecyclobutyl)-[1,2,4]triazolo[4,3-a]pyrazin-8-amine] | 6.62 |  |
| Nc1nc(C(F)(F)F)nc2c1nnn2C1CCCCC1 [Example 6] | 6.47 |  |
| Nc1ncnc2c1nnn2C1CCCCC1(F)F (single isomer, unassigned) [Example 114, 3-(2,2-difluorocyclohexyl)-3H-[1,2,3]triazolo[4,5-d]pyrimidin-7-amine] | 6.72 |  |
| CC1(C)CC(c2nnc3c(N)nccn23)CC(F)(F)C1 (single isomer, unassigned) [Example 178, 3-(3,3-difluoro-5,5-dimethylcyclohexyl) [1,2,4]triazolo[4,3-a]pyrazin-8-amine] | < 6.00 | 33% |
| Nc1nccn2c(C3CCCCO3)nnc12 (stereo not drawn) [Example 168] | 6.36 |  |
| CC1(C)CCCCN1c1nnc2c(N)nccn12 [Example 36, 3-(2,2-dimethylpiperidin-1-yl)-[1,2,4]triazolo[4,3-a]pyrazin-8-amine] | 6.42 |  |
| CCC1CCCCN1c1nnc2c(N)nccn12 (single isomer, unassigned) [Example 223, 3-(2-ethylpiperidin-1-yl) [1,2,4]triazolo[4,3-a]pyrazin-8-amine] | 6.72 |  |
| Nc1nccn2c(-c3ccccc3)nnc12 [Example 170] | 6.57 |  |
| Nc1nccn2c(N3CCCC4(CCCC4)C3)nnc12 [Example 45] | 6.68 |  |
| Nc1nccn2c([C@@H]3[C@H]4C=CC[C@H]43)nnc12 (relative stereo) [Example 163, 3-[(1S*,5R*,6S*)-bicyclo[3.1.0]hex-2-en-6-yl][1,2,4]triazolo[4,3-a]pyrazin-8-amine] | 6.66 |  |
| Nc1ncnc2c1nnn2[C@H]1CCCN(Cc2ccccc2)C1 [Example 138, 3-[(3S)-1-benzylpiperidin-3-yl]-3H-[1,2,3]triazolo[4,5-d]pyrimidin-7-amine] | 6.47 |  |
| CO[C@H]1CCCC[C@H]1n1nnc2c(N)ncnc21 (racemic) [Example 111, 3-[cis-2-methoxycyclohexyl]-3H-[1,2,3]triazolo[4,5-d]pyrimidin-7-amine] | 6.49 |  |
| CC1CC(n2nnc3c(N)ncnc32)CC(C)(C)C1 (stereo not drawn) [Example 108] | 6.64 |  |
| Nc1nccn2c(N3C[C@H]4C[C@H]4C3)nnc12 [Example 31] | 6.32 |  |
| Cc1ccc(F)c(-n2nnc3c(N)ncnc32)c1 [Example 129] | 6.12 |  |
| Nc1ncnc2c1nnn2C1CCCC(C(F)(F)F)C1 (single isomer, unassigned) [Example 203, 3-[cis-3-(trifluoromethyl)cyclohexyl]-3H-[1,2,3]triazolo[4,5-d]pyrimidin-7-amine] | < 6.00 | 27% |
| Nc1nccn2c([C@@H]3CCCC(F)(F)C3)nnc12 [Example 213, 3-(3,3-difluorocyclohexyl) [1,2,4]triazolo[4,3-a]pyrazin-8-amine] | 6.48 |  |
| Nc1ncnc2c1nnn2-c1cccc(C(=O)NCc2ccccc2)c1 [Example 131] | 6.60 |  |
| Nc1nccn2c(N3C4CCC3CC4)nnc12 [Example 66] | 6.44 |  |
| CC1CCC(F)(F)CC1c1nnc2c(N)nccn12 (single isomer, unassigned) [Example 176, 3-(cis-5,5-difluoro-2-methylcyclohexyl) [1,2,4]triazolo[4,3-a]pyrazin-8-amine] | < 6.00 | 28% |
| Nc1ncnc2c1nnn2-c1cccc(C(F)(F)F)c1 [Example 130] | 6.31 |  |
| CC1(C)CCCC(c2nnc3c(N)nccn23)C1 (single isomer, unassigned) [Example 206, 3-(3,3-dimethylcyclohexyl) [1,2,4]triazolo[4,3-a]pyrazin-8-amine] | < 6.00 | 44% |
| Nc1nccn2c(CC3CCCCC3)nnc12 [Example 165] | 6.44 |  |
| CC1CCC(C(F)(F)F)CC1c1nnc2c(N)nccn12 (single isomer, unassigned) [Example 173, 3-[2-methyl-5-(trifluoromethyl)cyclohexyl][1,2,4]triazolo[4,3-a]pyrazin-8-amine] | < 6.00 | 3% |
| C=C(C)[C@H]1CC[C@H](C)C(n2nnc3c(N)ncnc32)C1 (stereo in doubt) [Example 107, 3-[(1R,2S,5S)-2-methyl-5-(prop-1-en-2-yl)cyclohexyl]-3H-[1,2,3]triazolo[4,5-d]pyrimidin-7-amine] | < 6.00 | 35% |
| CC(C)C1CCCCN1c1nnc2c(N)nccn12 (stereo not drawn) [Example 37] | 6.31 |  |
| Nc1ncnc2c1nnn2C1CCC1 [Example 35] | 6.70 |  |

Now those with a higher pIC50, led by results:

| pIC50 | inhibition at 1 µM | SMILES |
| --- | --- | --- |
| 8.00 |  | CC1CCCCC1c1nnc2c(N)ncnn12 (single isomer, unassigned) [Example 69, 3-(cis-2-methylcyclohexyl) [1,2,4]triazolo[3,4-f][1,2,4]triazin-8-amine] |
| 8.00 |  | CC1(C)CCCC(c2nnc3c(N)nccn23)C1 (racemic) [Example 144, 3-(3,3-dimethylcyclohexyl) [1,2,4]triazolo[4,3-a]pyrazin-8-amine] |
| 6.74 |  | Nc1nccn2c(C3CCCCN3c3ncccn3)nnc12 (racemic) [Example 250, 3-(1-(pyrimidin-2-yl)piperidin-2-yl)-[1,2,4]triazolo[4,3-a]pyrazin-8-amine] |
| 7.52 |  | Nc1ncnc2c1nnn2[C@H]1CCC[C@@H](C(F)(F)F)C1 (racemic) [Example 87, 3-[cis-3-(trifluoromethyl)cyclohexyl]-3H-[1,2,3]triazolo[4,5-d]pyrimidin-7-amine] |
| 7.52 |  | CC1CCN(c2nnc3c(N)nccn23)CC1C (mixture of isomers) [Example 55, 3-(3,4-dimethylpiperidin-1-yl) [1,2,4]triazolo[4,3-a]pyrazin-8-amine] |
| 6.96 |  | Nc1nccn2c(C3CCC4CC4C3)nnc12 (single isomer, unassigned) [Example 220, 3-(bicyclo[4.1.0]hept-3-yl) [1,2,4]triazolo[4,3-a]pyrazin-8-amine] |
| 7.70 |  | Nc1ncnc2c1nnn2C1CCCC(C(F)F)C1 (stereo not drawn) [Example 119] |
| 6.77 |  | Nc1nccn2c(N3CCCC(C(F)(F)F)C3)nnc12 (single isomer, unassigned) [Example 224] |
| 7.70 |  | CC1CC(C)CN(c2nnc3c(N)nccn23)C1 (racemic) [Example 53, 3-[trans-3,5-dimethylpiperidin-1-yl][1,2,4]triazolo[4,3-a]pyrazin-8-amine] |
| 7.52 |  | CC1(C)CC(c2nnc3c(N)nccn23)CC(F)(F)C1 (racemic) [Example 156, 3-(3,3-difluoro-5,5-dimethylcyclohexyl) [1,2,4]triazolo[4,3-a]pyrazin-8-amine] |
| 6.80 |  | CC1CC(c2nnc3c(N)nccn23)C1 (stereo not drawn) [Example 133, 3-(3-methylcyclobutyl)-[1,2,4]triazolo[4,3-a]pyrazin-8-amine] |
| 6.77 |  | Nc1nccn2c([C@@H]3C[C@@H]4CC[C@H]3C4)nnc12 [Example 162] |
| 7.10 |  | CC1CCCC(n2nnc3c(N)ncnc32)C1 (racemic) [Example 98, 3-(cis-3-methylcyclohexyl)-3H-[1,2,3]triazolo[4,5-d]pyrimidin-7-amine] |
| 7.40 |  | Nc1ncnc2c1nnn2C1CCCCC1 [Example 85, 3-cyclohexyl-3H-[1,2,3]triazolo[4,5-d]pyrimidin-7-amine hydrochloride] |
| 7.10 |  | CC1CCCCC1n1nnc2c(N)ncnc21 (racemic) [Example 1, 3-(trans-2-methylcyclohexyl)-3H-[1,2,3]triazolo[4,5-d]pyrimidin-7-amine] |
| 7.05 |  | CC1CC(c2nnc3c(N)nccn23)CC(F)(F)C1 (racemic) [Example 155, 3-(trans-3,3-difluoro-5-methylcyclohexyl[1,2,4]triazolo[4,3-a]pyrazin-8-amine] |
| 7.52 |  | Nc1nccn2c(C3CCCC4(CC4)C3)nnc12 (racemic) [Example 145, 3-(spiro[2,5]oct-5-yl) [1,2,4]triazolo[4,3-a]pyrazin-8-amine] |
| 7.00 |  | CC1CCC(C)N(c2nnc3c(N)nccn23)C1 (single isomer, unassigned) [Example 233, 3-(2,5-dimethylpiperidin-1-yl) [1,2,4]triazolo[4,3-a]pyrazin-8-amine] |
| 7.52 |  | Nc1ncnc2c1nnn2C1CCCCC1(F)F (racemic) [Example 113, 3-(2,2-difluorocyclohexyl)-3H-[1,2,3]triazolo[4,5-d]pyrimidin-7-amine] |
